From ChEMBL document CHEMBL1201862, “PubChem BioAssay data set” (2004)
Calls of active or inactive are those of the source.

Experiments:
Jurkat = test: SAR Analysis of small molecule inhibitors of T-cell specific antigen receptor-induced NF-kB activation in a Jurkat cell line using a luminescence assay - Set 2. [Related pubchem assays (depositor defined):AID435003, AID435012, AID465]; format: functional, cell-based; conditions: Homo sapiens
HEK293 [1] = test: SAR Analysis of small molecule inhibitors of T-cell specific antigen receptor-induced NF-kB activation in a HEK-293T cell line using a luminescence assay - Set 2. [Related pubchem assays (depositor defined):AID435003, AID435012, AID489026]; format: functional, cell-based; conditions: Homo sapiens
HEK293 [2] = test: cytotoxicity in HEK293T NF-kB-Luc cells, SAR follow-up, cytotoxicity control for NF-kB activator project, cell-based, resazurin fluorescence (AID 493251); format: functional; conditions: Homo sapiens
[3] = target: T1, Short transient receptor potential channel 4 (Mus musculus, UniProt Q9QUQ5); test: mouse TRPC4 channel inhibitors, dose response, cell-based, HEK293 TRPC4/mu-opioid, Fluo-4 calcium (AID 434942); format: functional;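 also: potency of inhibitors blocking the TRPC4 calcium response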
T1 sequence (Q9QUQ5 whole entry): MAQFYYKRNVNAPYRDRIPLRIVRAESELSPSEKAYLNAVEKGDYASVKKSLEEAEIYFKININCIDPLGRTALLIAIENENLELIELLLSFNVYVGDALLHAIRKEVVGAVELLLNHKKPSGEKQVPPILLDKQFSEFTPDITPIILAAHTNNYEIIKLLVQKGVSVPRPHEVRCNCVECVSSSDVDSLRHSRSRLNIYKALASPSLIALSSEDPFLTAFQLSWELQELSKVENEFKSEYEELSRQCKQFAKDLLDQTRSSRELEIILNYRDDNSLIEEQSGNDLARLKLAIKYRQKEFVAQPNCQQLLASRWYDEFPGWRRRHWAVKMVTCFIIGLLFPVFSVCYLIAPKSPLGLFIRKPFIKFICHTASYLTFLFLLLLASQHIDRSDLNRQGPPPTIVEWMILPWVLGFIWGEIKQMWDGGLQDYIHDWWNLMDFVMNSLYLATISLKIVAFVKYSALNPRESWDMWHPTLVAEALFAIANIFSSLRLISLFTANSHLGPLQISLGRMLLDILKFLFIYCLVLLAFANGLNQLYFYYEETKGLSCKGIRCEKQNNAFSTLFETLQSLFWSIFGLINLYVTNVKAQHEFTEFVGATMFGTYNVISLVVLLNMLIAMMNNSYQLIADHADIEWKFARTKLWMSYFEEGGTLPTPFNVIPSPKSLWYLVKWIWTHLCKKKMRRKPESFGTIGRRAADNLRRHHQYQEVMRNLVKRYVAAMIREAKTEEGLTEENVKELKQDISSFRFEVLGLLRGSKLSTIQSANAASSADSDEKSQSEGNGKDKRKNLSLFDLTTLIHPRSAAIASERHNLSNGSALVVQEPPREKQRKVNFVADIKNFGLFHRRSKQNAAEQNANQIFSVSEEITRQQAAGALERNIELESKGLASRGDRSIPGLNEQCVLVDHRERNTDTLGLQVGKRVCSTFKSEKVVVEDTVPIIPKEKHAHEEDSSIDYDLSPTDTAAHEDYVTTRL

BJ [4] = test: cytotoxicity toward BJ-TERT fibroblasts, dose response, cell-based, RAS-independent, luminescence (AID 1933); format: functional; conditions: Homo sapiens
BJ [5] = test: cytotoxicity toward BJ-TERT-LT-ST fibroblasts, dose response, cell-based, RAS-independent, luminescence (AID 1935); format: functional; conditions: Homo sapiens;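 also: BJ fibroblasts immortalized with TERT plus LT and ST oncogenes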
BJ [6] = test: cells; format: functional, cell-based; conditions: Homo sapiens
BJ [7] = test: cytotoxicity toward Ras-transformed BJeLR fibroblasts, dose response, cell-based, alamar blue fluorescence, cherrypicked samples (AID 2631); format: functional; conditions: Homo sapiens;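 also: confirmatory dose-response assay in RAS-dependent BJ fibroblasts engineered with TERT, LT and ST, with cytotoxicity read by fluorescence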
[8] = cytotoxicity toward DRD oncogenic fibroblasts, dose response, cell-based, non-viral oncogenic, luminescence (AID 1934); format: functional; conditions: Homo sapiens
HeLa = test: HeLa cell cytotoxicity, dose response, cytotoxicity control, 48 h, plate reader, cherry-picks (AID 504942); format: functional, cell-based; conditions: Homo sapiens
[9] = target: T2, Endoribonuclease toxin MazF (Escherichia coli K-12, UniProt P0AE70); test: fluorescent RNA oligo signal without MazF, dose response, counter-screen for MazEF activator project, biochemical, fluorescence, single-stranded RNase substrate (AID 588502); format: functional
T2 sequence (P0AE70 whole entry): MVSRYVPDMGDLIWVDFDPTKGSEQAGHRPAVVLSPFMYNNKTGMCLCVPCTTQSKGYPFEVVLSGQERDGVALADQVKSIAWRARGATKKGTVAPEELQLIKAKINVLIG

Protein skinhead-1 = target: T3, Protein skinhead-1 (Caenorhabditis elegans, UniProt P34707); format: functional
T3 sequence (P34707 whole entry): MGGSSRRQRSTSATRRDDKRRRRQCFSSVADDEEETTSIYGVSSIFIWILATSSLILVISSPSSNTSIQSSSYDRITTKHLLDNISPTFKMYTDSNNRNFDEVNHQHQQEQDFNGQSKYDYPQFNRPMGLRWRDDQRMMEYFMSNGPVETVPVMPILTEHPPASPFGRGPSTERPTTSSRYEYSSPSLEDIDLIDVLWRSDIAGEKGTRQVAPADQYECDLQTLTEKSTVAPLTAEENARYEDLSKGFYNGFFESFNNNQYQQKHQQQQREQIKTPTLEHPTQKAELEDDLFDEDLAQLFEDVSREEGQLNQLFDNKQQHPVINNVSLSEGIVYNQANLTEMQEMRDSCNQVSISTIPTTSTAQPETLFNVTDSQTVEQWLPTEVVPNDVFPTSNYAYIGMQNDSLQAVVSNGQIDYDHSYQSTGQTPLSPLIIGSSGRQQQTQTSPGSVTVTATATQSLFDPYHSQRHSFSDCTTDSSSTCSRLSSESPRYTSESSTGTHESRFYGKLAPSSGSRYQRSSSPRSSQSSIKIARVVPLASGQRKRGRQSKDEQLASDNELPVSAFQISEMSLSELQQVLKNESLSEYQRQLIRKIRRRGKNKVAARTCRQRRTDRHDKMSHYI

[10] = Luminescence-based cell-based high throughput dose response assay to identify activators of the DAF-12 from the parasite S. stercoralis (ssDAF-12).; format: functional
[11] = target: T4, Oxysterols receptor LXR-beta (Homo sapiens, UniProt P55055); test: LXR agonists, Gal4 luciferase reporter, dose response, counter-screen for ssDAF-12 agonist project, cell-based, luminescence, HEK293, S. stercoralis campaign (AID 720737); format: functional; conditions: read-out: IC50 (the source's name)
T4 sequence (P55055 whole entry): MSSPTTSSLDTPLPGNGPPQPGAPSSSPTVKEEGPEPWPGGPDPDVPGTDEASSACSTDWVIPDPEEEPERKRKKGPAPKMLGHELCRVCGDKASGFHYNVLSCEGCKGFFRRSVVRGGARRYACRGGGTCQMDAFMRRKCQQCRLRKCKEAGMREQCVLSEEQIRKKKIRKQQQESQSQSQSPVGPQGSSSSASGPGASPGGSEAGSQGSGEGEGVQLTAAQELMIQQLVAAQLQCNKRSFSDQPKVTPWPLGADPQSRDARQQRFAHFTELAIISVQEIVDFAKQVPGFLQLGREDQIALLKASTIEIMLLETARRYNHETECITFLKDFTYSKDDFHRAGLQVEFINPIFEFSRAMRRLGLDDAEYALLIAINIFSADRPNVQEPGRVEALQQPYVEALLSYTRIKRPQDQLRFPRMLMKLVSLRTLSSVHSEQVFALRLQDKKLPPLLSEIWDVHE

[12] = target: T5, Acyl-homoserine lactone acylase PvdQ (Pseudomonas aeruginosa (strain LESB58), UniProt Q9I194); test: P. aeruginosa PvdQ acylase inhibitors, dose response, biochemical, fluorescence, plate reader and imaging, cherry-picks (AID 493231)
T5 sequence (Q9I194 whole entry): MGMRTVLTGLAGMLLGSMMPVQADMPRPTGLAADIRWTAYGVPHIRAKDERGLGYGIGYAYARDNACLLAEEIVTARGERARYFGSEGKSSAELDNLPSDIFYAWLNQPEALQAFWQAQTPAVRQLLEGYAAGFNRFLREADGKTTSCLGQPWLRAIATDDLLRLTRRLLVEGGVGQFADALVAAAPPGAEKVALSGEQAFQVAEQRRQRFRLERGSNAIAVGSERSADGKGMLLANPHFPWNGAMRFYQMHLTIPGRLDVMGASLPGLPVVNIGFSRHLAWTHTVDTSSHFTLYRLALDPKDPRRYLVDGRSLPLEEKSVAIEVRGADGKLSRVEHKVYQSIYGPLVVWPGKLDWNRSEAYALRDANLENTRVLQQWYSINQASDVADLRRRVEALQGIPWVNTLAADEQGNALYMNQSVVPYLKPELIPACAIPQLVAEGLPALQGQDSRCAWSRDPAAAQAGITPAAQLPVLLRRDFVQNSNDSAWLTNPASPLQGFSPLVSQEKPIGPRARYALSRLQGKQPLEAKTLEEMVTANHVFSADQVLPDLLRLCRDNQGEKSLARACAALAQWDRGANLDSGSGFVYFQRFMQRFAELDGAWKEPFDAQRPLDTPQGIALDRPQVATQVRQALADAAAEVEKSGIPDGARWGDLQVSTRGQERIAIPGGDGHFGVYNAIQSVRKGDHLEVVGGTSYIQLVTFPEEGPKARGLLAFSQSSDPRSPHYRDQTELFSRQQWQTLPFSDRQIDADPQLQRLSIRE

[13] = target: T2, Endoribonuclease toxin MazF; test: MazF toxin RNase activators, dose response, biochemical, fluorescence, single-stranded RNA substrate, uHTS hits (AID 588481); format: functional
Hexokinase-1 = target: T6, Hexokinase-1 (Homo sapiens, UniProt P19367); test: SAR analysis of small molecule inhibitors of hexokinase domain containing I (HKDC1) in the hexokinase 1 selectivity assay. [Related pubchem assays (depositor defined):AID493160, AID493190]; format: functional
T6 sequence (P19367 whole entry): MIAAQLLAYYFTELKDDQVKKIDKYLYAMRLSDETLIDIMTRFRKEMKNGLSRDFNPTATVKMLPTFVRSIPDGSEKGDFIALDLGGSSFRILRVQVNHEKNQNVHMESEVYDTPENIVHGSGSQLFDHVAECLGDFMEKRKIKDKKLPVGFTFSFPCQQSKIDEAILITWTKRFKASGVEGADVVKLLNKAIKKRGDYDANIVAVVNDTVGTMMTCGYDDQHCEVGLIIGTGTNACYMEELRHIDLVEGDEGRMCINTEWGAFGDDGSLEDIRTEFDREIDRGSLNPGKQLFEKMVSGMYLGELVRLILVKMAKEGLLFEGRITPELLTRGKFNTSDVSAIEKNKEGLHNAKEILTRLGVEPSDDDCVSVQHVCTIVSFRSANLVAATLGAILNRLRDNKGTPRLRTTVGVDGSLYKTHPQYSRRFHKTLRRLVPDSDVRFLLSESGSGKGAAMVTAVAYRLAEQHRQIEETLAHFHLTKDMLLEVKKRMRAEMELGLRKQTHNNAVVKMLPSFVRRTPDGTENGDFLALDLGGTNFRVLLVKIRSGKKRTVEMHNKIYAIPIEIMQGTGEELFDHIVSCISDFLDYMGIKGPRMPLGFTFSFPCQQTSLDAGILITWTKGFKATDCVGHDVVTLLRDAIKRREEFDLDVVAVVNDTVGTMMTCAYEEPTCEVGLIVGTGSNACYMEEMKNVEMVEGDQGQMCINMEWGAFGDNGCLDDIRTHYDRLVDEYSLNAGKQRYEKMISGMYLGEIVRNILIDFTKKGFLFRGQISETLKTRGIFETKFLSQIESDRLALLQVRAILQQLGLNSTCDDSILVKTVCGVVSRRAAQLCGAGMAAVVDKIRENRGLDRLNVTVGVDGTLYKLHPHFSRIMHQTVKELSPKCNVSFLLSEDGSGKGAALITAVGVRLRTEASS

Hexokinase HKDC1 = target: T7, Hexokinase HKDC1 (Homo sapiens, UniProt Q2TB90); test: SAR analysis of small molecule inhibitors of hexokinase domain containing I (HKDC1). [Related pubchem assays (depositor defined):AID493160, AID493190]; format: functional
T7 sequence (Q2TB90 whole entry): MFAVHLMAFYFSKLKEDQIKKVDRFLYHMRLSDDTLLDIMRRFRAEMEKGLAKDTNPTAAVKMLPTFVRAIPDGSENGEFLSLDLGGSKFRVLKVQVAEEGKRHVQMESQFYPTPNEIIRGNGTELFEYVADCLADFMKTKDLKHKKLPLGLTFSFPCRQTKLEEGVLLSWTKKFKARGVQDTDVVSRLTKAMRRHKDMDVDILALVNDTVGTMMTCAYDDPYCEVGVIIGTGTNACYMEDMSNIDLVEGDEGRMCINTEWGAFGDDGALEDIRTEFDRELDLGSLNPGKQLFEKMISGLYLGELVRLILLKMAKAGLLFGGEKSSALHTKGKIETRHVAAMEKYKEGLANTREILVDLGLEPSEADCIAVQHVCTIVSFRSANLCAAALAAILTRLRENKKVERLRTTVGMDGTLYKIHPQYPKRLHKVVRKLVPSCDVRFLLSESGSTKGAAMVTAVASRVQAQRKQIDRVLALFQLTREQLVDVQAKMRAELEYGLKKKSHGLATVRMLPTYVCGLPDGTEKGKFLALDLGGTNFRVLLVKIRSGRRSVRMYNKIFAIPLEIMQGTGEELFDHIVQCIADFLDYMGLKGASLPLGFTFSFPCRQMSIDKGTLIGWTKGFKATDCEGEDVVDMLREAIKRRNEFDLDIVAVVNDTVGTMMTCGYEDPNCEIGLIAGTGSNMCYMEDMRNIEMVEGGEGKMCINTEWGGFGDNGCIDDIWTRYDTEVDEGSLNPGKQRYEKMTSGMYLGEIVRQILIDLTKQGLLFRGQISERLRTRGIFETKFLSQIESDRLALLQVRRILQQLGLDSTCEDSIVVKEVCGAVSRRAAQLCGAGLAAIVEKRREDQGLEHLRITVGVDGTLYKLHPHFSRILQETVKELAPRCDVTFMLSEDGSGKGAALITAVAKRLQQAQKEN

Cc1ccc(C)c(NC(=O)c2ccc([N+](=O)[O-])o2)c1
IC50 (Jurkat): 14.1 µM (active) | IC50 (HEK293 [1]): 46.6 µM (inactive) | IC50 (HEK293 [2]): > 80 µM (inactive)

COC(=O)c1cccc(Nc2c3c(nc4ccccc24)CCC3)c1
EC50 [3]: 2.11 µM (active) | EC50 (BJ [4]): 28.4 µM (active) | EC50 (BJ [5]): > 150 µM (inconclusive) | EC50 (BJ [6]): 18.2 µM (active) | EC50 (BJ [7]): > 133 µM (inactive) | EC50 [8]: 19.2 µM (active)

N#C/C(=C/c1ccco1)c1nc2ccccc2s1
AC50 (HeLa): 53.7 µM (active) | EC50 [9]: 54.8 µM (inactive) | IC50 (Protein skinhead-1): > 100 µM (inactive) | IC50 [10]: > 67.5 µM (inactive) | EC50 [11]: > 67.5 µM (inactive) | AC50 [12]: 12.5 µM (active) | EC50 [13]: 23.7 µM (inactive)

Cc1cccc(/C=C/c2nc3ccccc3c(=O)n2Cc2ccccc2)c1
IC50 (Hexokinase-1): > 80 µM (inactive) | IC50 (Hexokinase HKDC1): > 80 µM (inactive)
